# Source: US5070210A, “Novel ketenimines as intermediates for insecticides” (ICI Americas Inc., priority 1990, dated 1991)
# Experiments:
# Type in all cases: in vivo
# [1] = tested on: Cabbage Looper [Trichoplusia ni (Hubner)]; experiment: Cabbage looper insecticidal test; conditions: second-instar larvae, percent in solution; 3-5 days
# Method in brief: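 Steps: dilute compound in 50-50 acetone-water from 0.1% downward; immerse cotyledon pieces 2-3 s and dry; place in humid petri dishes with five second-instar larvae; record mortality at 3-5 days. Dosage-mortality curves yield LC50 as percent in solution.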
# [2] = tested on: Aster Leafhopper [Macrosteles fascifrens (Stal)]; experiment: Aster leafhopper insecticidal test; conditions: adults/nymphs, percent in solution; 48 hours
# Method in brief: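 Three ~10 cm oat seedlings per cup were dipped 2-3 seconds in 50-50 acetone-water compound solutions, dried, and caged with ten adult/nymph leafhoppers. Mortality was counted after 48 hours at concentrations from 0.05% downward. LC50, as percent compound in solution, came from dosage-mortality curves.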
# [3] = tested on: Housefly [Musca domestica]; experiment: Housefly insecticidal test; conditions: μg per 25 female flies; mortality after 48 hours
# Method in brief: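 Residual contact test: acetone dilution, 0.01% peanut oil spreader, solvent evaporated; 25 ♀ flies (1-2 d old) per cage; sugar-water plug; 48 h mortality read. LC50 in μg/25 female flies, from dose-mortality curves; top dose 100 μg/25 flies.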
# [4] = tested on: Tobacco Budworm [Heliothis virescens (Fabricius)] eggs; experiment: Tobacco budworm egg test; conditions: 2-day old eggs, percent in solution
# Method in brief: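 Mortality of dipped eggs served as read-out, recorded after untreated controls hatched and began feeding. Treatments used acetone solutions from 0.1% downward, with eggs incubated at 78° F; LC50 is expressed as percent of compound in the solution.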
# [5] = tested on: Beet Armyworm (Spodoptera exigua); experiment: Beet armyworm insecticidal test; conditions: second-instar larvae, percent in solution; five days
# Method: (§1) The compounds in Tables 1 and 2 above were tested for insecticidal activity using the following testing procedures. LC50 values, based on the results of these tests and calculated according to dosage-mortality curves, are expressed in Table 3.
# Beet Armyworm (Spodoptera exigua):
# Test compounds were diluted in a 50-50 acetone-water solution. Young leaves of sugar beets (Beta vulgaris) were immersed in the test solutions for 2-3 seconds and placed on a wire screen to dry. The dried leaves were placed in petri dishes containing a moistened filter paper and infested with five second-instar beet armyworm larvae. The dishes were placed in a high humidity chamber. Mortality of the larvae was recorded five days later. Test concentrations ranged from 0.1% downward. The LC-50 values are expressed below in Table 3 under the heading "BAW" in terms of percent of the test compound in solution.
# [6] = tested on: Maize weevil [Sitophilus Zeamais (Motschulsky)]; experiment: Maize weevil insecticidal test; conditions: adult weevils, percent in solution; 48 hours
# Method in brief: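 LC50, in percent of compound in solution, was derived from dosage-mortality curves after 48 h at about 25 °C. Ten adult weevils per container fed on four corn seeds briefly immersed in acetone:water (50:50) solutions of up to 0.01% and dried.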
# [7] = tested on: Tobacco Budworm [Heliothis virescens (Fabricius)] larvae; experiment: Tobacco budworm contact test; conditions: second-instar larvae, percent in solution, 5 days
# Method: as §1
# Tobacco Budworm [Heliothis virescens (Fabricius)]:
# (a) Contact: Test compounds were diluted in a 50-50 acetone-water solution. Cotton (Gossypium sp.) cotyledons were immersed in the test solutions for 2-3 seconds and placed on a wire screen to dry. The dried leaves were placed in petri dishes containing a moistened piece of filter paper and infested with 5 second-instar tobacco budworm larvae. The dishes were placed in a high humidity chamber for 5 days, and percent mortality of the larvae recorded. Test concentrations ranged from 0.1% downward. The LC-50 values are expressed below in Table 3 under the heading "TBW-C" in terms of percent of the test compound in the solution.
SMILES,"LC50, CL [1] [%]","LC50, LH [2] [%]","LC50, HF [3] [µg]","LC50, TBW, E (TBW-E) [4] [%]","LC50, BAW [5] [%]","LC50, MW [6] [%]","LC50, TBW, C (TBW-C) [7] [%]"
CC(C)C(=Nc1cccc(Cl)c1)OCc1cccc(Oc2ccccc2)c1 [Compound 7],0.006,0.0002,8,0.009,0.006,,
CC(C)C(=Nc1ccc(Cl)c(Cl)c1)OCc1cccc(Oc2ccccc2)c1 [Compound 14],0.004,0.001,40,,0.005,0.01,
CC(C)C(=Nc1ccc(Cl)cc1)OCc1ccc(F)c(Oc2ccccc2)c1 [Compound 23],0.0005,,5,0.017,0.001,,
CC(C)C(=Nc1ccc(F)cc1)OCc1cccc(Oc2ccccc2)c1 [Compound 46],0.003,0.002,7,0.016,0.006,,
CC(C)C(=Nc1cccc(C(F)(F)F)c1)OCc1cccc(Oc2ccccc2)c1 [Compound 67],0.001,0.00027,15,0.01,0.006,,
CCC(C)C(=Nc1ccc(F)c(Cl)c1)OCc1cccc(Oc2ccccc2)c1 (stereo not shown) [Compound 122],0.0007,> 0.05,37,0.05,0.01,> 0.01,
O=[N+]([O-])c1cccc(N=C(OCc2cccc(Oc3ccccc3)c2)C(Cl)Cl)c1 [Compound 174],0.03,,17,> 0.1,0.1,,
CC(C)C(=Nc1ccc(F)c(C(F)(F)F)c1)OCc1ccc(F)c(Oc2ccc(Cl)cc2)c1 [Compound 297],0.00027,0.0001,23,0.025,,0.0071,0.00075
CC(C)C(=Nc1ccc(F)c(Cl)c1)OCc1cccc(Oc2ccccc2)n1 [Compound 462],0.001,0.001,7,0.04,,> 0.05,0.0025
C#CCc1c(F)c(F)c(COC(=Nc2ccc(F)c(Cl)c2)C(C)C)c(F)c1F [Compound 520],> 0.1,0.0003,5.5,> 0.1,,0.0042,0.00075
CC(C)C(=Nc1ccc(F)c(Cl)c1F)OCc1cccc(Oc2ccc(F)cc2)n1 [Compound 521],0.00005,0.05,7.5,> 0.1,,0.01,0.0005
CC(C)C(=Nc1ccc(Cl)c(Cl)c1)OCc1cccc(Oc2ccc(Cl)cc2)n1 [Compound 523],0.00015,> 0.05,22,> 0.1,,> 0.01,0.0002
CC(C)C(=Nc1ccc(C(F)(F)F)cc1)OCc1cccc(Oc2ccc(Cl)cc2)n1 [Compound 530],0.00027,0.05,9.8,0.005,,> 0.01,0.00005
CC(C)C(=Nc1ccc(F)c(Cl)c1)OCc1cccc(Oc2ccc(F)c(F)c2)n1 [Compound 531],> 0.1,> 0.05,5,> 0.1,,> 0.01,0.00037
